Reference: US6890736B1, “Methods for producing proteins in cultured cells” (Immunex Corporation, priority 2002, dated 2005)
Values joined by “and” are separate entries in the source; they are usually repeats but may differ in a detail not shown here. Identical values can stand only once.

Experiments:
[1] = tested on: cell line 25H9 (CHO cells that produce IL-1R-II protein); assay: Example 1: induction of IL-1R-II production (ELISA titer, productivity) at 31° C. or 34° C.; format: cell-based, Chinese hamster
Description: The following experiment was designed to test whether decitabine can induce the production of a protein, in this case a recombinant soluble form of the human interleukin 1 receptor type II (IL-1-R-II), at either 31° C. or 34° C. Soluble versions of IL-1R-II and methods for producing it are described in U.S. Pat. No. 5,767,064. DNA encoding a soluble form of the human IL-1R-II was inserted into pG3.6, which is described in Morris et al. ((1998), Cytotechnology 28:9-17). This construct was used to transfect CHO cells to produce cell lines, including 25H9, that produce IL-1R-II protein.
(§1) About 2×10^6 cells of cell line 25H9 were inoculated into 30 milliliters of serum-free medium and incubated at the temperatures indicated in Table 1 in vented shake flasks. At the times indicated in Table 1, samples were taken from each flask to determine IL-1R-II titer, cell number, and cell viability. IL-1R-II protein titer was determined by ELISA assay. Cell number was determined by counting cells in a hemocytometer. Cell viability was determined by trypan blue staining and counting stained cells in a hemocytometer. Cumulative viable cell density (CVCD) is the area under the curve of a plot of the viable cell density versus time (in units of cells/ml/day). Productivity (pg of IL-1R-II/cell/day) was determined by dividing the protein titer on a particular day by the CVCD on the same day. Cells were fed with amino acids on days 2 and 5, and dextrose was added periodically in order to maintain levels above 2.0 g/L. All samples were done in duplicate, and the data shown is an average value.

[2] = tested on: cell line 25H9 (CHO cells); assay: Example 3: cell number (Guava PCA Cytometer); format: cell-based, Chinese hamster; conditions: 31° C., 10 μM
Description: as §1
The following experiment compares the effects of 5-bromo-2′-deoxycytidine 5′-monophosphate and 5-aza-2′-deoxycytidine on induction of protein production. The experiment was done as described in Example 1 with the following exceptions. All cultures were incubated at 31° C., and cell number and viability were determined using a Guava PCA Cytometer (available from Guava Technologies, Hayward, Calif., USA). Samples were done in triplicate.

[3] = 31° C., 1 μM decitabine, day 10
[4] = 31° C., 5 μM decitabine, day 10
[5] = 31° C., 10 μM decitabine, day 3
[6] = 31° C., 10 μM decitabine, day 5
[7] = 31° C., 10 μM decitabine, day 7
[8] = 31° C., 10 μM decitabine, day 10
[9] = 34° C., 10 μM decitabine, day 3
[10] = 34° C., 10 μM decitabine, day 5
[11] = 34° C., 10 μM decitabine, day 7

Nc1ncn([C@H]2C[C@H](O)[C@@H](CO)O2)c(=O)n1 [decitabine, 5-aza-2′-deoxycytidine]
IL-1R-II Titer ([1]; 31° C., 1 μM decitabine, day 0): 0.0 µg/mL
IL-1R-II Titer ([1]; 31° C., 1 μM decitabine, day 3): 62.6 µg/mL
Productivity ([1]; 31° C., 1 μM decitabine, day 3): 7.5 pg IL-1R-II/cell/day
IL-1R-II Titer ([1]; 31° C., 1 μM decitabine, day 5): 132.0 µg/mL
Productivity ([1]; 31° C., 1 μM decitabine, day 5): 7.8 pg IL-1R-II/cell/day
IL-1R-II Titer ([1]; 31° C., 1 μM decitabine, day 7): 216.5 µg/mL
Productivity ([1]; 31° C., 1 μM decitabine, day 7): 7.8 pg IL-1R-II/cell/day
IL-1R-II Titer [1, 3]: 330.5 µg/mL
Productivity [1, 3]: 7.5 pg IL-1R-II/cell/day
IL-1R-II Titer ([1]; 31° C., 5 μM decitabine, day 0): 0.0 µg/mL
IL-1R-II Titer ([1]; 31° C., 5 μM decitabine, day 3): 77.8 µg/mL
Productivity ([1]; 31° C., 5 μM decitabine, day 3): 9.2 pg IL-1R-II/cell/day
IL-1R-II Titer ([1]; 31° C., 5 μM decitabine, day 5): 123.5 µg/mL
Productivity ([1]; 31° C., 5 μM decitabine, day 5): 7.8 pg IL-1R-II/cell/day
IL-1R-II Titer ([1]; 31° C., 5 μM decitabine, day 7): 210.5 µg/mL
Productivity ([1]; 31° C., 5 μM decitabine, day 7): 9.2 pg IL-1R-II/cell/day
IL-1R-II Titer [1, 4]: 351.0 µg/mL
Productivity [1, 4]: 8.8 pg IL-1R-II/cell/day
IL-1R-II titer relative to the titer observed at 31° C. with no inducer ([1]; 31° C., 10 μM decitabine): 1.7 times
most effective concentration for IL-1R-II titer ([1]; 31° C., 10 μM decitabine among 1, 5, 10 μM): most effective concentration among those tested
IL-1R-II Titer ([1]; 31° C., 10 μM decitabine, day 0): 0.0 µg/mL
IL-1R-II Titer [1, 5]: 59.1 µg/mL
Productivity [1, 5]: 8.0 pg IL-1R-II/cell/day
IL-1R-II Titer [1, 6]: 149.5 µg/mL
Productivity [1, 6]: 10.4 pg IL-1R-II/cell/day
IL-1R-II Titer [1, 7]: 224.5 µg/mL
Productivity [1, 7]: 10.4 pg IL-1R-II/cell/day
IL-1R-II Titer [1, 8]: 378 µg/mL and 378.0 µg/mL
Productivity [1, 8]: 11.9 pg IL-1R-II/cell/day
IL-1R-II Titer ([1]; 34° C., 1 μM decitabine, day 0): 0.0 µg/mL
IL-1R-II Titer ([1]; 34° C., 1 μM decitabine, day 3): 65.4 µg/mL
Productivity ([1]; 34° C., 1 μM decitabine, day 3): 5.7 pg IL-1R-II/cell/day
IL-1R-II Titer ([1]; 34° C., 1 μM decitabine, day 5): 143.5 µg/mL
Productivity ([1]; 34° C., 1 μM decitabine, day 5): 5.6 pg IL-1R-II/cell/day
IL-1R-II Titer ([1]; 34° C., 1 μM decitabine, day 7): 212.5 µg/mL
Productivity ([1]; 34° C., 1 μM decitabine, day 7): 5.1 pg IL-1R-II/cell/day
IL-1R-II Titer ([1]; 34° C., 1 μM decitabine, day 10): 206.0 µg/mL
IL-1R-II Titer ([1]; 34° C., 5 μM decitabine, day 0): 0.0 µg/mL
IL-1R-II Titer ([1]; 34° C., 5 μM decitabine, day 3): 73.6 µg/mL
Productivity ([1]; 34° C., 5 μM decitabine, day 3): 6.4 pg IL-1R-II/cell/day
IL-1R-II Titer ([1]; 34° C., 5 μM decitabine, day 5): 156.5 µg/mL
Productivity ([1]; 34° C., 5 μM decitabine, day 5): 6.3 pg IL-1R-II/cell/day
IL-1R-II Titer ([1]; 34° C., 5 μM decitabine, day 7): 218.5 µg/mL
Productivity ([1]; 34° C., 5 μM decitabine, day 7): 5.7 pg IL-1R-II/cell/day
IL-1R-II Titer ([1]; 34° C., 5 μM decitabine, day 10): 307 µg/mL and 307.0 µg/mL
IL-1R-II Titer ([1]; 34° C., 10 μM decitabine, day 0): 0.0 µg/mL
IL-1R-II Titer [1, 9]: 80.8 µg/mL
Productivity [1, 9]: 8.3 pg IL-1R-II/cell/day
IL-1R-II Titer [1, 10]: 151.5 µg/mL
Productivity [1, 10]: 7.9 pg IL-1R-II/cell/day
IL-1R-II Titer [1, 11]: 203.5 µg/mL
Productivity [1, 11]: 7.5 pg IL-1R-II/cell/day
IL-1R-II titers at 34° C. compared with 31° C. ([1]; all concentrations of decitabine at 34° C.): Lower IL-1R-II titers
productivity on a per cell basis ([1]; at 7 and 10 days at all concentrations and temperatures tested): increased
Viable Cell Density ([2]; day 0): 2.4 cells/ml × 10^6
Viable Cell Density ([2]; day 2): 2.4 cells/ml × 10^6
Viable Cell Density ([2]; day 5): 1.8 cells/ml × 10^6
Viable Cell Density ([2]; day 7): 1.1 cells/ml × 10^6
Viable Cell Density ([2]; day 9): 0.9 cells/ml × 10^6
